Columns and labels:
[1] = test system: E. coli Tat machinery (IMVs containing overproduced TatABC); assay: In vitro Tat transport assay of pre-SufI into IMVs, NADH as energy source; type: biochemical, Escherichia coli; conditions: out of 22 independent assays by three different people
Procedure: (§1) To directly test for inhibition of Tat transport, a gel-based in vitro Tat transport assay was performed using pre-SufI, an authentic Tat precursor protein [7]. In short, this assay consists of incubating a Tat substrate and a Δψ-generating energy source with inverted membrane vesicles (IMVs) containing overproduced TatABC, digesting remaining external protein with a protease, and then analyzing via SDS-PAGE. This assay was run twice using NADH and ATP (if warranted) as energy sources to generate the necessary Δψ. NADH generates a Δψ using respiratory proteins (i.e., the NADH dehydrogenase and cytochrome bo3 ubiquinol oxidase complexes) and ATP generates a Δψ by reversal of ATP synthase. A true Tat inhibitor would survive both assays. In contrast, a respiration inhibitor is expected to reduce Tat transport when only one of the two energy sources is used (except for an ionophore).
Fig 8 Effect of Hits from the Local HTS on In Vitro Tat Transport. (A) Tat transport assays of pre-SufI using NADH to generate a Δψ. Inverted membrane vesicles (IMVs; A280 = 5.0), the fluorescent substrate pre-SufI-IAC^Atto565 (90 nM), and NADH (4 mM) were incubated at 37°C for 30 min with DMSO (control) or with hit compound (20 μM). Samples were treated with the protease proteinase K, run on SDS-PAGE, and analyzed by in-gel fluorescence imaging. Assays were run in duplicate. Band intensity corresponds to the amount of protein transported into the IMV lumen. The following 7 compounds survived this screen: 1^JS, 51^JS, 55^JS, 111^JS, 181^JS, 202^JS, and 140^JS (boxed in red). (B) Tat transport assays of pre-SufI using ATP to generate a Δψ. All 7 compounds surviving the screen in (A) were tested using a Tat transport assay performed identically to those in (A) except that ATP (1 mM) was used in place of NADH. Compound 55^JS was eliminated by this assay—the other 6 compounds survived (boxed in red). (C) Chemical structure of compound 55^JS, N-(4,7-Dioxo-4,7-dihydro-2,1,3-benzoxadiazol-5-yl)acetamide.
Isolation of inverted membrane vesicles (IMVs), Western blot analyses and purification of pre-SufI-IAC were performed as described previously. Western blots were performed using rabbit anti-mCherry antibodies (1:10,000 dilution) in the presence of 0.1% Triton X-100 and 0.1% Tween 20. The pre-SufI-IAC protein was labeled with Atto565 maleimide, and the resultant fluorescent protein, pre-SufI-IAC^Atto565, was used as a substrate for the in vitro Tat transport assays (A280 = 5.0), as described previously. The presence of a Δψ was determined by measuring oxonol VI fluorescence in presence of Tat^+ IMVs (A280 = 0.5), as described previously, except that the translocation buffer lacked BSA. Steady-state fluorescence spectra and fluorescence intensities of whole cells producing mCherry proteins were determined with an SLM-8100 spectrofluorometer.
Supplementary file pone.0149659.s003.tiff: S3 Fig IC50's for Hit Compound 181^JS. (A) The total cellular mCherry fluorescence (live cell assay; n = 1), (B) the in vitro NADH-dependent Tat transport efficiency of pre-SufI (n = 1), and (C) the maximum transmembrane electrical potential gradient (n = 1) were measured for a range of concentrations of compound 181^JS (S2E Fig). (D) SDS-PAGE gel showing in-gel fluorescence data used in (B). For (A), cells expressing spTorA-mCherry-SsrA were grown under Tat^++ conditions in a 384-well plate in the presence of 0, 0.08, 0.15, 0.3, 0.63, 1.25, 2.5, 5, 10, 20, or 40 μM compound 181^JS, as described for the HTS assay (see Methods). For (B) and (C), IMVs were incubated with the same concentrations of compound 181^JS prior to initiation of Tat transport and Δψ generation by the addition of NADH, as described previously. The red curves are best-fits using y = d + (100-d)/(1+(x/IC50)^b), where b is a slope factor and d is the high concentration asymptote. (TIFF) Click here for additional data file.

[2] = test system: E. coli Tat machinery (IMVs containing overproduced TatABC); assay: In vitro Tat transport assay of pre-SufI into IMVs, ATP as energy source; type: biochemical, Escherichia coli; conditions: hit compound 100 μM
Procedure: as §1
(§2) Fig 8 Effect of Hits from the Local HTS on In Vitro Tat Transport. (A) Tat transport assays of pre-SufI using NADH to generate a Δψ. […] Samples were treated with the protease proteinase K, run on SDS-PAGE, and analyzed by in-gel fluorescence imaging. Assays were run in duplicate. Band intensity corresponds to the amount of protein transported into the IMV lumen. The following 7 compounds survived this screen: 1^JS, 51^JS, 55^JS, 111^JS, 181^JS, 202^JS, and 140^JS (boxed in red). (B) Tat transport assays of pre-SufI using ATP to generate a Δψ. All 7 compounds surviving the screen in (A) were tested using a Tat transport assay performed identically to those in (A) except that ATP (1 mM) was used in place of NADH. […]
(§3) Isolation of inverted membrane vesicles (IMVs), Western blot analyses and purification of pre-SufI-IAC were performed as described previously. […] The presence of a Δψ was determined by measuring oxonol VI fluorescence in presence of Tat^+ IMVs (A280 = 0.5), as described previously, except that the translocation buffer lacked BSA. Steady-state fluorescence spectra and fluorescence intensities of whole cells producing mCherry proteins were determined with an SLM-8100 spectrofluorometer.

[3] = test system: E. coli Tat machinery (IMVs containing overproduced TatABC); assay: In vitro Tat transport assay of pre-SufI into IMVs, NADH as energy source; type: biochemical, Escherichia coli; conditions: hit compound 100 μM
[4] = biological target: T1, E. coli Tat machinery (IMVs containing overproduced TatABC) (Escherichia coli, UniProt P69423+P69425+P69428); assay: In vitro Tat transport assay of pre-SufI into IMVs, ATP as energy source; type: biochemical; conditions: hit compound 100 μM
T1 sequence (P69423 2-258): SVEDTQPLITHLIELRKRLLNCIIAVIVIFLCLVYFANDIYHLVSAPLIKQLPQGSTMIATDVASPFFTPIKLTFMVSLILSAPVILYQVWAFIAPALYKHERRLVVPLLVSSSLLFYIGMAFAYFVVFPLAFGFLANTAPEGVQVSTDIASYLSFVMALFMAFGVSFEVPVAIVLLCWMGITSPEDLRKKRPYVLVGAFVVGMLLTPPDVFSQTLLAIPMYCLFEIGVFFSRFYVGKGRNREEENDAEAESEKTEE
T1 sequence (P69425 whole entry): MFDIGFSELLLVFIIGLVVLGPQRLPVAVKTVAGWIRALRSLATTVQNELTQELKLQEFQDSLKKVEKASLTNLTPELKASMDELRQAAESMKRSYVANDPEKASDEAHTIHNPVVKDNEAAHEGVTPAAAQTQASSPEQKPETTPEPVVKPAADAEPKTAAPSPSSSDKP
T1 sequence (P69428 whole entry): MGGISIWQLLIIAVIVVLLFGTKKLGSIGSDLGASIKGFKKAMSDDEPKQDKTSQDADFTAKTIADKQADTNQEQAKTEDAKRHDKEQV
Procedure: as §1, §2, §3

[5] = biological target: T1, E. coli Tat machinery (IMVs containing overproduced TatABC); assay: In vitro Tat transport assay of pre-SufI into IMVs, NADH as energy source; type: biochemical; conditions: hit compound 100 μM

Structure (SMILES) | number of assays in which Tat transport was inhibited [1] [times] | outcome of ATP-dependent in vitro Tat transport screen (survival = visible inhibition of Tat transport) [2] | outcome of NADH-dependent in vitro Tat transport screen (survival = visible inhibition of Tat transport) [3] | outcome of ATP-dependent in vitro Tat transport screen (survival = visible inhibition of Tat transport) [4] | outcome of NADH-dependent in vitro Tat transport screen (survival = visible inhibition of Tat transport) [5]
Oc1cc(Cl)ccc1Oc1ccc(Cl)cc1Cl [Compound 18^NIH, 5-Chloro-2-(2,4-dichlorophenoxy)phenol] | 12 | survived | survived |  | 
N#CC1c2ccccc2-n2nncc2CN1Cc1cc(Cl)cc(Cl)c1 (centres unmarked) [21^NIH, 5-[(3,5-dichlorophenyl)methyl]-4,6-dihydrotriazolo[1,5-a][1, 4]benzodiazepine-6-carbonitrile] |  |  |  | survived | survived
